US8486918B2, “Phenyl oxadiazole derivatives as sphingosine 1-phosphate (S1P) receptor” (Allergan, Inc., priority 2010, dated 2013)

biological target: T1, human S1P1 receptor (Homo sapiens, UniProt P21453); assay: GTP γ35S binding assay for S1P1 activity; type: biochemical; conditions: membranes of cells stably expressing the S1P1 receptor, test concentrations 0.08 to 5,000 nM
T1 construct: expressed in transfected cells; membranes used
Description: Compounds were synthesized and tested for S1P1 activity using the GTP γ^35S binding assay. These compounds may be assessed for their ability to activate or block activation of the human S1P1 receptor in cells stably expressing the S1P1 receptor.
GTP γ^35S binding was measured in the medium containing (mM) HEPES 25, pH 7.4, MgCl2 10, NaCl 100, dithitothreitol 0.5, digitonin 0.003%, 0.2 nM GTP γ^35S, and 5 μg membrane protein in a volume of 150 μl. Test compounds were included in the concentration range from 0.08 to 5,000 nM unless indicated otherwise. Membranes were incubated with 100 μM 5′-adenylylimmidodiphosphate for 30 min, and subsequently with 10 μM GDP for 10 min on ice. Drug solutions and membrane were mixed, and then reactions were initiated by adding GTP γ^35S and continued for 30 min at 25° C. Reaction mixtures were filtered over Whatman GF/B filters under vacuum, and washed three times with 3 mL of ice-cold buffer (HEPES 25, pH7.4, MgCl2 10 and NaCl 100). Filters were dried and mixed with scintillant, and counted for ^35S activity using a β-counter. Agonist-induced GTP γ^35S binding was obtained by subtracting that in the absence of agonist. Binding data were analyzed using a non-linear regression method. In case of antagonist assay, the reaction mixture contained 10 nM S1P in the presence of test antagonist at concentrations ranging from 0.08 to 5000 nM.

T1 sequence (P21453 whole entry): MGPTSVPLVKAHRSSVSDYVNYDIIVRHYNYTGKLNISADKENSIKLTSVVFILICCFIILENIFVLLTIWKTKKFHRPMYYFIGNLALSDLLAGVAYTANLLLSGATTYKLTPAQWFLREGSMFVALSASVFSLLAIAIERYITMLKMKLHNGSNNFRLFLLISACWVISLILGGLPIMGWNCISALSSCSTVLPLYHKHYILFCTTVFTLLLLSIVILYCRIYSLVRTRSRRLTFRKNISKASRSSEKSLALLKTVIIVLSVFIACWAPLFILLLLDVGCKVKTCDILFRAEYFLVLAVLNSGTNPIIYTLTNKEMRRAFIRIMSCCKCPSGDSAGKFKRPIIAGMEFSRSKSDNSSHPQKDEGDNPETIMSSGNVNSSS

Row | SMILES | EC50 [nM]
1 | CCCc1cccc(OC(c2cccc(Cl)c2)c2nc(-c3ccc(CNCCC(=O)O)cc3)no2)c1 (centres unmarked) [3-[(4-{5-[(3-chlorophenyl)(3-propylphenoxy)methyl]-1,2,4-oxadiazol-3-yl}benzyl)amino]propanoic acid] | 2100
2 | O=C(O)CCNCc1ccc(-c2noc(C(Oc3cccc(Cl)c3)c3ccccc3Cl)n2)cc1 (centres unmarked) [Compound 2, 3-[(4-{5-[(3-chlorophenoxy)(2-chlorophenyl)methyl]-1,2,4-oxadiazol-3-yl}benzyl)amino]propanoic acid] | 2120
3 | Cc1ccc(SC(c2nc(-c3ccc(CNCCC(=O)O)cc3)no2)c2ccccc2Cl)cc1C (centres unmarked) [Compound 5, 3-{[4-(5-{(2-chlorophenyl)[(3,4-dimethylphenyl)thio]methyl}-1,2,4-oxadiazol-3-yI)benzyl]amino}propanoic acid] | 146
4 | CCCc1ccc(OC(c2cccc(Cl)c2)c2nc(-c3ccc(CNCCC(=O)O)cc3)no2)cc1 (centres unmarked) [Compound 6, 3-[(4-{5-[(3-chlorophenyl)(4-propylphenoxy)methyl]-1,2,4-oxadiazol-3-yI}benzyl)amino]propanoic acid] | 1600
5 | CCc1ccc(OC(c2cccc(Cl)c2)c2nc(-c3ccc(CNCCC(=O)O)cc3)no2)cc1 (centres unmarked) [Compound 7, 3-[(4-{5-[(3-chlorophenyl)(4-ethylphenoxy)methyl]-1,2,4-oxadiazol-3-yI}benzyl)amino]propanoic acid] | 1080
6 | Cc1ccc(OC(c2cccc(Cl)c2)c2nc(-c3ccc(CNCCC(=O)O)cc3)no2)cc1 (centres unmarked) [Compound 8, 3-[(4-{5-[(3-chlorophenyl)(4-methylphenoxy)methyl]-1,2,4-oxadiazol-3-yl}benzyl)amino]propanoic acid] | 420
7 | COc1ccc(OC(c2nc(-c3ccc(CNCCC(=O)O)cc3)no2)c2ccccc2Cl)cc1C (centres unmarked) [Compound 10, 3-[(4-{5-[(2-chlorophenyl)(4-methoxy-3-methylphenoxy)methyl]-1,2,4-oxadiazol-3-yl}benzyl)amino]propanoic acid] | 209
8 | Cc1ccc(SC(c2cccc(Cl)c2)c2nc(-c3cc(C)c(OCC(O)CO)c(C)c3)no2)cc1C (centres unmarked) [Compound 11, 3-[4-(5-{(3-chlorophenyl)[(3,4-dimethylphenyl)thio]methyl}-1,2,4-oxadiazol-3-yl)-2,6-dimethylphenoxy]propane-1,2-diol] | 29.9
